Experimental data as given in patent US20220213174A1, “IVIG TREATMENTS FOR SUDDEN SONSORINEURAL HEARING LOSS” (InnoMed Technologies, Inc., priority 2021, published 2022).

Tests used:
[1] = system: Hearing Loss, including Sudden Sensorineural Healing Loss; details: prednisolone 60 mg per day for 5 days then reduced, or 50 mg per day for 10 days; cited from earlier work
[2] = system: Sudden Sensorineural Healing Loss; experiment: Example 1: treatment of a patient suffering from hearing loss; assay type: in vivo, human; details: person; 60 mg/day prednisone therapy alone; two weeks
Procedure: The patient, a person was diagnosed by their doctor after claiming they are suffering from unexplained hearing loss. The patient's doctor diagnosed the patient as suffering from Sudden Sensorineural Healing Loss. […] Two weeks after administration, the patient is co-administered a single dose of IVIG at 2 g/kg and 60 mg prednisone and Sudden Sensorineural Healing Loss related symptoms […].

[3] = system: Sudden Sensorineural Hearing Loss; experiment: Example 2: treatment of a patient suffering from hearing loss; assay type: in vivo, human; details: person; 60 mg/day prednisone therapy alone for a month
Procedure: The patient, a person is diagnosed by their doctor as suffering from Sudden Sensorineural Hearing Loss. […] The patient is then administered IVIG at 2 g/kg and 60 mg prednisone. Within three weeks, the Sudden Sensorineural Hearing Loss is resolved by about 80%. The patient is then administered a second dose of IVIG at 2 g/kg and 60 mg. prednisone. Within two weeks, the patient is resolved by about 95%. A week later, the patient's Sudden Sensorineural Hearing Loss symptoms have disappeared and the patient presents as normal.

| Compound | outcome and time to complete recovery in patients with Hearing Loss [1] | reduction in the symptoms they suffer [2] | resolution of Sudden Sensorineural Hearing Loss [3] |
| --- | --- | --- | --- |
| C[C@]12C=CC(=O)C=C1CC[C@@H]1[C@@H]2[C@@H](O)C[C@@]2(C)[C@H]1CC[C@]2(O)C(=O)CO [prednisolone] | improves outcome |  |  |
| C[C@]12C=CC(=O)C=C1CC[C@@H]1[C@@H]2C(=O)C[C@@]2(C)[C@H]1CC[C@]2(O)C(=O)CO [prednisone] |  | no reduction | did not resolve |
| methylprednisone | improves outcome |  |  |
